Test system: mice subjected to hypobaric hypoxia
Test: Hypobaric hypoxia in mice (survival time)
Type: in vivo, NMRI male mice
Settings: mice; for Percentage variation / Survival time in seconds (m ± sem): hypobaric hypoxia 160 mmHg
Description: 1.1 Hypobaric Hypoxia in Mice
NMRI male mice from Janvier weighing between 25 and 30 grams were used after acclimatisation in the animal house for at least 7 days (t°=22±2° C.; humidity 50±20%; feed UAR “A04” SAFE (Augy, France) and tap water ad libitum; 12 hour night and day cycle (light from 7 a.m. to 7 p.m.).
The unfasting […] were distributed at random into lots of 10.
The protocol of Nakaniski et al. (1973) Life Sciences, 13, 467-474 was adapted for the purposes of the model.
Each mouse was placed in a dessicator (hermetically sealed enclosure) in which atmospheric pressure was reduced from 760 to 160 mmHg using a water pump. This pressure reduction was carried out in one minute and caused death of the control animals in approximately 1 minute.
The survival time of the animal, which corresponded to the difference between the time to death of the mouse assessed by respiratory arrest less the time required to induce the hypoxia was then noted.
The products under investigation were administered intraperitoneally (i.p.) (0.1 ml/10 g), 30 minutes before inducing hypobaric hypoxia, or orally (0.1 ml/10 g p.o.) 1 hour before hypoxia.
Etifoxine hydrochloride was dissolved in 1% Tween 80. The potassium cyanide (Merck) was dissolved in 0.9% NaCl.
The statistical test used was a one-factor analysis of variance to determine the treated groups, which differed from the control group receiving the vehicle, at a threshold of 5%.

Question: CCNC1=Nc2ccc(Cl)cc2C(C)(c2ccccc2)O1.Cl (stereo not shown) [etifoxine, 6-chloro-2-ethylamino-4-methyl-4-phenyl-4H-[3,1]benzoxazine hydrochloride] was tested. Which Percentage variation (i.p. 3 mg/kg) did it give?
Answer: The Percentage variation was “+12%”.

Question: What about the “Survival time in seconds (m ± sem)” value (i.p. 3 mg/kg) of the same compound?
Answer: Its value is 64.5 ± 3.4 s.

Question: And the Percentage variation (i.p. 10 mg/kg)?
Answer: Its Percentage variation is “+15%”.

Question: And the “Survival time in seconds (m ± sem)” value (i.p. 10 mg/kg)?
Answer: Its value is 66.1 ± 3.0 s.

Question: What about the Percentage variation (i.p. 30 mg/kg) of the same compound?
Answer: Its Percentage variation is “+42%”.

Question: And the “Survival time in seconds (m ± sem)” value (i.p. 30 mg/kg)?
Answer: The value was 81.8 ± 4.6 s.

Question: What about the Percentage variation (i.p. 50 mg/kg) of the same compound?
Answer: The Percentage variation was “+141%”.

Question: And the “Survival time in seconds (m ± sem)” value (i.p. 50 mg/kg)?
Answer: Its value is 138.5 ± 23.3 s.

Question: And the Percentage variation (i.p. 75 mg/kg)?
Answer: The Percentage variation was “+130%”.

Question: And the “Survival time in seconds (m ± sem)” value (i.p. 75 mg/kg)?
Answer: The value was 132.0 ± 21.6 s.

Question: What about the Percentage variation (p.o. 30 mg/kg) of the same compound?
Answer: Its Percentage variation is “+47%”.

Question: What about the “Survival time in seconds (m ± sem)” value (p.o. 30 mg/kg) of the same compound?
Answer: The value was 81.5 ± 4.5 s.

Question: And the Percentage variation (p.o. 100 mg/kg)?
Answer: Its Percentage variation is “+72%”.

Question: And the “Survival time in seconds (m ± sem)” value (p.o. 100 mg/kg)?
Answer: The value was 95.3 ± 5.6 s.

Question: And the Percentage variation (p.o. 200 mg/kg)?
Answer: The Percentage variation was “+79%”.

Question: What about the “Survival time in seconds (m ± sem)” value (p.o. 200 mg/kg) of the same compound?
Answer: Its value is 99.5 ± 2.7 s.

Question: What about the Percentage variation (p.o. 300 mg/kg) of the same compound?
Answer: Its Percentage variation is “+108%”.

Question: What about the “Survival time in seconds (m ± sem)” value (p.o. 300 mg/kg) of the same compound?
Answer: The value was 115.5 ± 8.6 s.

Question: And the time to death (hypobaric hypoxia, over 30 mg/1 kg i.p. or p.o.)?
Answer: The time to death was “significantly increased the time to death”.

From patent US8338410B2, “Neuroprotective compounds and pharmaceutical compositions comprising them” (Biocodex, priority 2005, dated 2012)
